ChEMBL document CHEMBL2157874, “First total synthesis of prasinic acid and its anticancer activity” (Bioorg Med Chem Lett, 2012)

Key:
PANC-1 = experiment: Cytotoxicity against human PANC1 cells after 48 hrs by modified propidium iodide assay; format: functional, cell-based; details: PANC-1, 48 h
ACHN = experiment: Cytotoxicity against human ACHN cells after 48 hrs by modified propidium iodide assay; format: functional, cell-based
HCT-116 = experiment: Cytotoxicity against human HCT116 cells after 48 hrs by modified propidium iodide assay; format: functional, cell-based; details: HCT-116, 48 h
NCI-H460 = experiment: Cytotoxicity against human H460 cells after 48 hrs by modified propidium iodide assay; format: functional, cell-based; details: NCI-H460, 48 h
Calu-1 = experiment: Cytotoxicity against human Calu1 cells after 48 hrs by modified propidium iodide assay; format: functional, cell-based; details: Calu-1, 48 h
MCF-10A = experiment: Cytotoxicity against human MCF10A cells after 48 hrs by modified propidium iodide assay; format: cell-based

Question: What does the source list for `CCCCCCCc1cc(OC(=O)c2c(O)cc(O)cc2CCCCCCC)cc(O)c1C(=O)O` [PRASINIC ACID]?
Answer: IC50 (PANC-1): 8.5 µM; IC50 (ACHN): 8.2 µM; IC50 (HCT-116): 7.8 µM; IC50 (NCI-H460): 9.1 µM; IC50 (Calu-1): 4.3 µM; IC50 (MCF-10A): > 30 µM
